Reference: the NIST ThermoML archive (doi:10.1021/je4008298)

Assay: mn = molality of the nth substance listed, in mol/kg
Conditions: for viscosity / mass density: 101.3 kPa, Liquid; for viscosity: Capillary tube (Ostwald / Ubbelohde) method; for surface tension liquid-gas: Pendant drop shape

NC(CO)CO [2-amino-1,3-propanediol] + O
Conditions | mass density, 293.2 K [kg/m3] | mass density, 300.2 K [kg/m3] | mass density, 307.2 K [kg/m3] | mass density, 313.2 K [kg/m3] | surface tension liquid-gas, 298.2 K [mN/m] | surface tension liquid-gas, 313.2 K [mN/m] | viscosity, 293.2 K [mPa·s] | viscosity, 300.2 K [mPa·s] | viscosity, 307.2 K [mPa·s] | viscosity, 313.2 K [mPa·s]
m1 = 0.953 | 1012.63 | 1010.28 | 1008.07 | 1005.49 | – | – | 1.244 | 1.056 | 0.896 | 0.8
m1 = 0.959 | – | – | – | – | 71.7 | 69.4 | – | – | – | –
m1 = 2.052 | 1026.97 | 1024.18 | 1021.61 | 1019.22 | – | – | 1.606 | 1.335 | 1.118 | 0.983
m1 = 2.151 | – | – | – | – | 71.3 | 69 | – | – | – | –
m1 = 3.459 | – | – | – | – | 70.8 | 68.6 | – | – | – | –
m1 = 3.464 | 1041.67 | 1038.8 | 1036.8 | 1033.49 | – | – | 2.157 | 1.769 | 1.458 | 1.275
m1 = 4.693 | 1052.77 | 1050.01 | 1047.38 | 1044.53 | – | – | 2.784 | 2.261 | 1.845 | 1.588
m1 = 4.745 | – | – | – | – | 70.4 | 68.3 | – | – | – | –
